Patent US20180085371A1, “COMBINATION OF PANOBINOSTAT AND RUXOLITINIB IN THE TREATMENT OF CANCER SUCH AS A MYELOPROLIFERATIVE NEOPLASM” (Novartis AG, priority 2011, published 2018)
Blank lines part the entries; values can stand above or below the compound they belong to.

Key:
[1] = test system: Ba/F3 EpoR JAK2V617F-luc clone 8 cells; experiment: Ba/F3 EpoR JAK2V617F-luc cells-driven leukemic disease mouse model, Xenogen bioluminescence; assay type: in vivo; settings: for T/C last day (%): (treated/control)·100; for Fractional change in Biolux: biolux last day/first day, mean
Description: A study is conducted to test the efficacy of the combination of Compound A and Compound B in Scid-beige mice injected i.v. (tail vein) with 1·10^6 Ba/F3 EpoR JAK2V617F-luc clone 8 cells.
• 80 Scid-beige female mice, 18-22 g (8 groups of 7 mice, 24 excluded at time of randomization) • Cells: Ba/F3 EpoR JAK2V617F-luc clone 8 cells. • Whole body Xenogen imaging was performed on days 4, 7, 9 and 11 after cell injection. Randomization of animals into treatment groups was based on bioluminescence (BioL) on day 4 after cell injection. • The mouse model and the protocol is described by Baffert et al., Mol. Cancer Ther; 9(7), 1945, July 2010. Animal and Cell line: • Cell line: Ba/F3EpoR JAK2V617F-luc clone 8 • Gene: JAK2V617F • Cell-Nr./Injection site: 1×10e6 cells in 200 ul/tail i.v. injection • Species: mouse • Strain: CB17/C.B-Igh-l^b/GbmsTac-Prkdc^scid-lyst^bgN7, Taconic farms (complete name Taconic) • Gender: female • Age: […] • Number: 80 mice
Ba/F3 EpoR JAK2V617F-luc cells are grown in RPMI1640 supplemented with 10% FCS, 1% Glutamine, Puromycin (1 ug/mL) and Hygromycin (100 ug/mL). Cells are splited every three days (1:50) not more than two weeks before experiment. The day prior the injection, cells are grown without any antibiotics (to avoid any potential delay in cell growth in vivo).
The day of injection the cells are harvested and resuspended in HBSS buffer (10e6 cells in 200 ul). Cells are injected in tail vein using 27G tuberculin syringe. […]
Bioluminescence are recorded using the Xenogen Camera (non invasive IVIS® Imaging system, Caliper) on day 4, day 7 and 10 post cell injection under isofluran anesthesia (3-5% vol isofluran, 0.8 L/min air flow). Animals are injected i.p. with D-luciferin (Xenogen corporation, ref XR-1001), at 150 mg/kg (10 ml/kg, Nacl). Anesthetized mice are then placed in the imaging chamber for imaging 15 minutes after the luciferin injection.
Animals are randomized on day 4 and treatment started for at least 6 days based on well being of vehicle treated animals.

[2] = Stability of dosing solution at room temperature; assay type: physicochemical
Description: Compound B was administered as the lactate salt by intraveneous or intraperitoneal injection. The lactic salt of Compound B was formulated in isotonic D5W (5% Dextrose; B. Braun, Lot 395147) at a concentration of 1.5 mg/ml, 1 mg/ml and 0.5 mg/ml, respectively. The solution was stable for up to 10 days at room temperature. Treatment was given 3 times a week at a volume of 10 ml/kg. The final equivalent free-base doses were respectively 11.90, 7.94 and 3.97 mg/kg. In the figures, these doses are reported as whole values.
The mono-phosphate salt of Compound A was formulated in 0.5% HPMC (Pharmacoat 603, Dow Chemical Plaqueline, USA) at a concentration of 7.9 mg/ml. Solution was stable at room temperature for 4 days. Treatment was given bid at a volume of 10 ml/kg. The final equivalent free-base dose was 60 mg/kg.

Acetylated Histone H3 = experiment: PD marker acetylated histone H3 by IHC in spleen and bone marrow; assay type: in vivo, mouse; settings: Compound B 8 mg/kg alone or with Compound A 60 mg/kg
Source text: Briefly, the spleen was removed in total, weighed and placed on a dissection tray. The spleen was cut transverse in two halves and two equal pieces were taken from the middle parts using a scalpel. […] Baker, Medite, Switzerland). Fixative volume was at least tenfold in excess compared to tissue volume. […] After a last wash in PBS, the tissues were cut up and set with the surface of interest downwards in a universal histocassette followed by processing in a TPC 15Duo (Tissue Processing Center) for paraffinization. From each tissue paraffin block, several 3 μm thick sections were cut on a sliding or rotary microtome (Mikrom International AG, Switzerland), spread in a 45° C. water-bath, mounted on microscope slides (Polysine, VWR International, Leuven, Belgium), and air-dried in an oven at 37° C. overnight. […] Splenic architecture was evaluated as destroyed (1+) or preserved (0). Presence of myeloid, erythroid and adipocytes cells was evaluated as 0, 1+, 2+, 3+ based on cellularity. […] Whole slide automated quantitative assessment of p-STAT5-positive and -negative cell nuclei were performed using Definiens eCognition software (eCognition version XD 1.5, Definiens AG, Germany). The results were expressed as percent of positive p-STAT5 nuclei out of total nuclei.

[3] = Compound A 60 mg/kg po twice a day

Stability of solution at room temperature ([2]; mono-phosphate salt in 0.5% HPMC, 7.9 mg/ml): 4 days
Compound: N#CC[C@H](C1CCCC1)n1cc(-c2ncnc3[nH]ccc23)cn1 [Compound A, (R)-3-(4-(7H-pyrrolo[2,3-d]pyrimidin-4-yl)-1H-pyrazol-1-yl)-3-cyclopentylpropanenitrile]
T/C last day (%) [1, 3]: 40% | Fractional change in Biolux [1, 3]: 717

Stability of solution at room temperature ([2]; lactic salt in isotonic D5W (5% Dextrose), 0.5-1.5 mg/ml): up to 10 days
Compound: Cc1[nH]c2ccccc2c1CCNCc1ccc(/C=C/C(=O)NO)cc1 [Compound B, N-hydroxy-3-[4-[[[2-(2-methyl-1H-indol-3-yl)-ethyl]-amino]methyl]phenyl]-2E-2-propenamide]
Fractional change in Biolux ([1]; Compound B 4 mg/kg ip M/W/F (free-base equivalent)): 481 | T/C last day (%) ([1]; Compound B 4 mg/kg ip M/W/F): 27% | T/C last day (%) ([1]; Compound B 8 mg/kg ip M/W/F): 20% | Fractional change in Biolux ([1]; Compound B 8 mg/kg ip M/W/F): 351 | T/C last day (%) ([1]; Compound B 12 mg/kg ip M/W/F): 11% | Fractional change in Biolux ([1]; Compound B 12 mg/kg ip M/W/F): 204 | Acetylated histone H3 (IHC), surrogate readout for deacetylase inhibition (Acetylated Histone H3): clear increase
